Counter-ions that a name gives are not always drawn. Like-named read-outs stand apart in the source and are kept apart here.
Columns and labels:
[1] = biological target: T1, nicotinic acetylcholine receptors (Rattus norvegicus, UniProt P09483+P12390); assay: inhibition of specific binding of ^3 H-methylcarbamylcholine (^3 H-MCC); conditions: for IC50: rat cortical receptors, ^3 H-MCC 2 nM, 0° C., 60 min
T1 construct: Fresh or frozen rat, brain tissue (hippocampus or cortex) was homogenized; from tissue
T1 sequence (P09483 31-630): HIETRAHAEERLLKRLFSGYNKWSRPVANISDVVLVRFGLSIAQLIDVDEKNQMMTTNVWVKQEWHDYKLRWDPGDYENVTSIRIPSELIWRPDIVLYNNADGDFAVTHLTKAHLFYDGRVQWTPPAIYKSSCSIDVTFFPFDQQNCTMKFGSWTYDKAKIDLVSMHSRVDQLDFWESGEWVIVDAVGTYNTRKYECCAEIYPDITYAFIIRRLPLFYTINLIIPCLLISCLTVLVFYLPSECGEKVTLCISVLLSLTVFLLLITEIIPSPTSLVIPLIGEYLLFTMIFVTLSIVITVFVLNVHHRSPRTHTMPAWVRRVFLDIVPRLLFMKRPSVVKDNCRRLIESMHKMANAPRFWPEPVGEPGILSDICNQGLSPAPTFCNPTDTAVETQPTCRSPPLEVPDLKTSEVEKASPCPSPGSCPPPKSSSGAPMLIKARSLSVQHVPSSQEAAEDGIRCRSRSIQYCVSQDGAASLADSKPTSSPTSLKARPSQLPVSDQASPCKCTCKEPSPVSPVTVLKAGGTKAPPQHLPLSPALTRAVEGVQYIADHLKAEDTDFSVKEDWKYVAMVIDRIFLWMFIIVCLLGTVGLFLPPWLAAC
T1 sequence (P12390 25-500): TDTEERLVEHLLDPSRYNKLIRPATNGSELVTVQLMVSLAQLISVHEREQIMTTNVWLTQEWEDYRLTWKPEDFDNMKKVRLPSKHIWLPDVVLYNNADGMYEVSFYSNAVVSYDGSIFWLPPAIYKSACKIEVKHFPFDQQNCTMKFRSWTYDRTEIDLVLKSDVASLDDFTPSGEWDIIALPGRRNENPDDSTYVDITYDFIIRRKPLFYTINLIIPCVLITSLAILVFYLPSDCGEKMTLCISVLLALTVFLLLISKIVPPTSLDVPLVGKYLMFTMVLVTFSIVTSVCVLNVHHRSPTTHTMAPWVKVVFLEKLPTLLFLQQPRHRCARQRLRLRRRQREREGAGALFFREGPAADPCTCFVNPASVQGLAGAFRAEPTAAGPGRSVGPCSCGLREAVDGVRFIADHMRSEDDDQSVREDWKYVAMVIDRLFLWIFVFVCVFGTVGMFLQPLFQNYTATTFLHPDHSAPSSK
Excerpt: The pharmacological properties of the compounds of the invention can be illustrated by determining their capability to inhibit the specific binding of ^3 H-methylcarbamylcholine (^3 H-MCC) (Abood and Grassi, Biochem. Pharmacol., Vol. 35, pp. 4199-4202, (1986)).
^3 H-MCC labels the nicotinic receptors in the CNS. The inhibitory effect on ^3 H-MCC binding reflects the affinity for nicotinic acetylcholine receptors.
Fresh or frozen rat, brain tissue (hippocampus or cortex) was homogenized in assay buffer (50 mM Tris-HCl, pH 7.4, 120 mM NaCl, 5 mM KCl, 2 mM CaCl2, 1 mM MgCl2) and centrifuged for 10 min. at 40.000×g. Pellets were subsequently reconstituted in assay buffer and an appropriate amount of tissue sample was mixed in tubes with ^3 H-methylcarbamylcholine (NEN, NET-951; final concentration 2 nM) and test drug. The tubes were incubated at 0° C. for 60 min. Unbound ligand was separated from bound ligand by vacuum filtration through GF/B filters presoaked in 0.5% polyethylenimine. Filters were washed three times with 5 ml wash buffer (50 mM Tris-HCl, pH 7.4) and transferred to vials. 4 ml scintillation fluid was added and the radioactivity was measured by scintillation counting. Unspecific binding was measured with 10 μM nicotine.
The IC50 values of the test compounds were determined by nonlinear regression analyses (GraphPad InPlot).
Table I illustrates the affinity of the compounds of the present invention for nicotinic and muscarinic receptors as determined by ^3 H-MCC and ^3 H-Oxo binding to rat cortical receptors. The compounds, however, show selective affinity for nicotinic receptors as compared to muscarinic receptors, i.e OXO/MCC>1.

[2] = biological target: muscarinic acetylcholine receptors; assay: inhibition of specific binding of ^3 H-Oxotremorine-M (^3 H-Oxo); conditions: rat cortical receptors; ^3 H-Oxotremorine 1.0 nM, 25° C., 30 min
Excerpt: Furthermore, the pharmacological properties of the compounds of the invention can also be illustrated by determining their capability to inhibit the specific binding of ^3 H-Oxotremorine-M (^3 H-Oxo). Birdsdall N. J. M., Hulme E. C., and Burgen A. S. V. (1980). "The Character of Muscarinic Receptors in Different Regions of the Rat Brain". Proc. Roy. Soc. London (Series B) 207,1.
^3 H-Oxo labels muscarinic receptor in the CNS (with a preference for agonist domains of the receptors). Three different sites are labelled by ^3 H-Oxo. […] Using the present experimental conditions only the high and medium affinity sites are determined.
The inhibitory effects of compounds on ^3 H-Oxo binding reflects the affinity for muscarinic acetylcholine receptors.
All preparations are performed at 0-4° C. unless otherwise indicated. […]
The final pellet is homogenized in 20 mM Hepes pH: 7.4 (100 ml per g of original tissue) and used for binding assay. […] Non-specific binding is determined in triplicate using arecoline (1 ug/ml, final concentration) as the test substance. […] The amount of radioactivity on the filters are determined by conventional liquid scintillation counting. […]
Table I illustrates the affinity of the compounds of the present invention for nicotinic and muscarinic receptors as determined by ^3 H-MCC and ^3 H-Oxo binding to rat cortical receptors. […]

[3] = biological target: muscarinic acetylcholine receptors; conditions: read-out: affinity of ^3 H-Oxo labelled site, cited from earlier work
cognition = conditions: age related; cited from earlier work
attention and memory = conditions: healthy humans and Alzheimer's disease patients; cited from earlier work
[4] = system: dopamine release in the nucleus accumbens; conditions: nucleus accumbens versus striatum; cited from earlier work
substantia nigra = conditions: chronic nicotine; lesioning; cited from earlier work
Tourette's syndrome = conditions: in vivo; cited from earlier work
dopaminergic effects = conditions: various behavioral models; cited from earlier work

Structure (SMILES): CC(=O)/C=C1\CN2CCC1CC2.O=C(O)C(=O)O [Compound 1, (Z)-3-Acetylmethylene-1-azabicyclo[2.2.2]octane oxalate]
- IC50 [1]: 23 nM
- Oxo/MCC Ratio ([1]; selectivity nicotinic versus muscarinic: ^3 H-Oxo IC50 / ^3 H-MCC IC50): 52
- IC50 [2]: 1200 nM

Structure (SMILES): CC(=O)/C=C1/CN2CCC1CC2 [Compound 2, (E)-3-Acetylmethylene-1-azabicyclo[2.2.2]octane oxalate]
- IC50 [1]: > 300 nM
- IC50 [2]: < 1000 nM

Structure (SMILES): C[N+](C)(C)CC#CCN1CCCC1=O [^3 H-Oxo, ^3 H-Oxotremorine-M]
- Kd ([3]; high affinity site): 1.8 nM
- Kd ([3]; medium affinity site): 20 nM
- Kd ([3]; third (lowest affinity) site, not determined under the present conditions): 3000 nM

Structure (SMILES): CNC1(C)C2CCC(C2)C1(C)C (centres unmarked) [mecamylamine]
- cognitive impairment (cognition): shown to cause cognitive impairment in an age related way

Structure (SMILES): CN1CCCC1c1cccnc1 (centres unmarked) [nicotine]
- attention and memory (attention and memory): improved attention and memory in healthy humans
- stimulation of dopamine release [4]: stimulates dopamine release in the nucleus accumbens more potently than in striatum
- protection against cell loss in the substantia nigra (substantia nigra): may protect against cell loss in the substantia nigra caused by lesioning
- effects in Tourette's syndrome (Tourette's syndrome): shown beneficial effects in Tourette's syndrome
- potentiation of dopaminergic effects (dopaminergic effects): will potentiate dopaminergic effects in various behavioral models
